Legend:
wild type plants = assay: Hypocotyl and root growth assay; assay type: in vivo, Arabidopsis thaliana; settings: wild type plants grown in the light
Experimental: The det2-1 and bzr1-1D mutants are in Arabidopsis thaliana Columbia ecotype background, and bri1-5 is in the WS ecotype. For hypocotyl and root growth assay, seedlings were grown on vertical phytoagar plate containing ^1/2 MS medium and 1% sucrose (pH 5.7) in the dark for 4 days or under continuous light for 7 days. Confocal microscopy and BiFC analysis were performed according to Gampala et al. (Gampala et al., Dev Cell 13, 177 (August, 2007)).
Arabidopsis seeds were surface sterilized by first soaking in 70% ethanol plus 0.1% Triton X-100 for 15 min followed by soaking in 96% ethanol for another 10 mins. Sterilized seeds were air dried in the hood and sowed on agar plate of Murashige and Skoog (MS) medium or MS plate plus BRZ or Brassinolide. The seeds were incubated at 4° C. for 3 days to synchronize germination and then grown for 4 days in dark or 7 days under continuous light before taking pictures for measurement. For measurement of hypocotyls or root growth, the plates were first scanned using a image scanner at a resolution of 300 dpi, and the images were input into computer software Image J to measure the root or hypocotyl length.

BRI1-GFP and BRK1-myc = target: T1, BRI1-GFP and BRK1-myc (Arabidopsis thaliana, UniProt O22476); assay: Co-immunoprecipitation of BRI1 with BRK1; assay type: in vivo; settings: 100 nM brassinolide for 30 min; microsomal proteins immunoprecipitated with anti-GFP antibodies; plants co-expressing BRK1-myc and BRI1-GFP (FIG. 2D)
T1 construct: expressed in transfected cells; host or cells: transgenic Arabidopsis plants (rosette leaves, microsomal fraction)
T1 sequence (O22476 24-1196): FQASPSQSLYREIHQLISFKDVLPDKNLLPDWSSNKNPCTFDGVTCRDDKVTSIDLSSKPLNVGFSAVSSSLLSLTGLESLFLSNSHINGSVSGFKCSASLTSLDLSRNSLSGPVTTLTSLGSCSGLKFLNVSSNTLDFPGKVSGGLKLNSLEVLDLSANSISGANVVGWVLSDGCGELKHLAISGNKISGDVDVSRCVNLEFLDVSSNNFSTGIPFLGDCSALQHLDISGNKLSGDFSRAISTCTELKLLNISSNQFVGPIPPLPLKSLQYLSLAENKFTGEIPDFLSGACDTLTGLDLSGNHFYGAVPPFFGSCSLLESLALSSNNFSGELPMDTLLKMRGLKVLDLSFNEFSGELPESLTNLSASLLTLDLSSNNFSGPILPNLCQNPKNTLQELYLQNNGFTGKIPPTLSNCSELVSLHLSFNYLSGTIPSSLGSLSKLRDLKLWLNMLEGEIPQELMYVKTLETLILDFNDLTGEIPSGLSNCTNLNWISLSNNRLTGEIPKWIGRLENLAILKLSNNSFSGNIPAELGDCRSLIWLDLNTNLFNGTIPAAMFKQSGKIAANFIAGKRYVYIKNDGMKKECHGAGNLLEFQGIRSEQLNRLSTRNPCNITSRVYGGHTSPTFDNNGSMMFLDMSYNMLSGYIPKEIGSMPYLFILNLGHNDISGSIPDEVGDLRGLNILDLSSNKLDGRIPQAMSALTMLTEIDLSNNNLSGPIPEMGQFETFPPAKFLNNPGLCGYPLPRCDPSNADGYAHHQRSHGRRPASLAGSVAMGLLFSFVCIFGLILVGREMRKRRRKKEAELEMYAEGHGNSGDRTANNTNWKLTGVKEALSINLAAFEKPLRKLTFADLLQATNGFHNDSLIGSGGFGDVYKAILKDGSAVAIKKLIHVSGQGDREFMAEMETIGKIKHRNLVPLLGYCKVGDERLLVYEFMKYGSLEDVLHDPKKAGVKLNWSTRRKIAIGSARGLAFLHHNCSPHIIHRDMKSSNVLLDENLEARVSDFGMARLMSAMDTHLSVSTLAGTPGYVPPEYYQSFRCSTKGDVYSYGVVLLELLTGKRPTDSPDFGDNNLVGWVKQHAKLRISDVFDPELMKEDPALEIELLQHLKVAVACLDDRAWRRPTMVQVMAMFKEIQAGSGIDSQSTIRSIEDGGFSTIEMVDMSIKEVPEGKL
T1 sequence (Q94F62 26-615 partner): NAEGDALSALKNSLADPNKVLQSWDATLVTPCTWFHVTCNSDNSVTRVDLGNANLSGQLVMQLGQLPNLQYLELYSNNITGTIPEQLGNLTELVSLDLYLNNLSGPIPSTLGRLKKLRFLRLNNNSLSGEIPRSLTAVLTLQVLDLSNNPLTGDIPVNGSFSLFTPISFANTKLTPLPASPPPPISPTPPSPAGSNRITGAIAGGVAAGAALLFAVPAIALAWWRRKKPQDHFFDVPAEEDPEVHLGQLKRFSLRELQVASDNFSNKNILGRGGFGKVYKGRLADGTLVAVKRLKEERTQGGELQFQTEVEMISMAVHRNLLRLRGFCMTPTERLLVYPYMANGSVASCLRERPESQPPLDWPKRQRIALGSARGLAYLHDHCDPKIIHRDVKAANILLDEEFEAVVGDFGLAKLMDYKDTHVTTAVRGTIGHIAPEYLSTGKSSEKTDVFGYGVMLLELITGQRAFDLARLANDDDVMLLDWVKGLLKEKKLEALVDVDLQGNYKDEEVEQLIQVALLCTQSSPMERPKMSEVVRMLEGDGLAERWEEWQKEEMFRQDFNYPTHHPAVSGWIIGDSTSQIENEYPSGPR
Experimental: FIGS. 2A-2D show BRK1 is a substrate of BRI1. FIGS. 2A and 2B show BRI1 phosphorylates serine230 of BRK1 in vitro. […] YFP fluorescence images of N. benthamiana leaf epidermal cells co-transformed with the indicated constructs. […] Arabidopsis plants expressing BRK1-myc only (lanes 1 and 4) or co-expressing BRK1-myc and BRI1-GFP (lanes 2, 3, 5, 6) were treated with 100 nM brassinolide (BL+) or mock solution (BL−) for 30 min. Microsomal proteins (lanes 1 to 3) were immunprecipitated with anti-GFP antibodies (lanes 4 to 6), and the immunoblot was probed using anti-GFP antibodies or anti-myc antibodies.
All procedures were performed at 4° C. Rosette leaves of 3-week-old Arabidopsis plants were homogenized with mortar and pestle in the grinding buffer (20 mM HEPES, pH 7.5, 40 mM KCl, 250 mM sucrose, 5 mM MgCl2 and protein inhibitors) at a ratio of 3 mL buffer per gram of tissue. Homogenate was filtered through 2 layers of Miracloth (CalBiochem, La Jolla, Calif.), and centrifuged at 10,000 g for 10 minutes. The supernatant was further centrifuged at 100,000 g for 60 min to pellet the microsomal fraction. Microsomes were re-suspended in 0.5 mL grinding buffer and sonicated for 10 sec. Triton X-100 was added to a final concentration of 1%. After mixing, the extracts were centrifuged at 20,000 g for 10 min. […] Samples were analyzed by SDS-PAGE and immunoblotting.

With CC(C)[C@H](C)[C@@H](O)[C@H](O)[C@@H](C)[C@H]1CC[C@H]2[C@@H]3COC(=O)[C@H]4C[C@H](O)[C@H](O)C[C@]4(C)[C@H]3CC[C@]12C [Brassinolide] the hypocotyl elongation (wild type plants) was “increases hypocotyl elongation”, the root growth (wild type plants) was “inhibits root growth” and the “amount of the co-immunoprecipitated BRK1-myc” value (BRI1-GFP and BRK1-myc) was 46 % of the untreated sample.

From patent US8541649B2, “Brassinosteroid regulated kinases (BRKs) that mediate brassinosteroid signal transduction and uses thereof” (priority 2008, dated 2013)
